These results are taken from patent US20250288589A1, “PYRIDOPYRIMIDINES AND METHODS OF THEIR USE” (Kineta, Inc., priority 2021, published 2025).

Some results are limits rather than exact numbers.

Assay [1] concerns PIKFYVE TDP-43 yeast strain. Briefly: Propidium iodide viability assay in PIKFYVE TDP-43 yeast strain. As to conditions: Saccharomyces cerevisiae; reduction in PI-positive cells, 24 hours, 15 μM to 0.11 μM; plotted in FIG. 7. The format is cell-based. From the text: Generation of TDP-43 yeast model expressing human PIKfyve. Human PIKFYVE (“entry clone”) was cloned into pAG416GPDccdB (“destination vector”) according to standard Gateway cloning protocols (Invitrogen, Life Technologies). The resulting pAG416GPD-PIKFYVE plasmids were amplified in E. coli and plasmid identity confirmed by restriction digest and Sanger sequencing. Lithium acetate/polyethylene glycol-based transformation was used to introduce the above PIKFYVE plasmid into a BY4741 yeast strain auxotrophic for the ura3 gene and deleted for two transcription factors that regulate the xenobiotic efflux pumps, a major efflux pump, and FAB1, the yeast ortholog of PIKFYVE (MATa, snq2::KILeu2; pdr3::Klura3;pdr1::NATMX; fab1::G418^R, his3;leu2;ura3;met15;LYS2+) (FIG. 2).
Transformed yeast were plated on solid agar plates with complete synthetic media lacking uracil (CSM-ura) and containing 2% glucose. Individual colonies harboring the control or PIKFYVE TDP-43 plasmids were recovered. A plasmid containing wild-type TDP-43 under the transcriptional control of the GAL1 promoter and containing the hygromycin-resistance gene as a selectable marker was transformed into the fab1::G418^R pAG416GPD-PIKFYVE yeast strain (FIG. 1). Transformed yeast were plated on CSM-ura containing 2% glucose and […] after overnight recovery in media lacking antibiotic. Multiple independent isolates were further evaluated for cytotoxicity and TDP-43 expression levels.
Viability Assay. A control yeast strain with the wild-type yeast FAB1 gene and TDP-43 (“FAB1 TDP-43”, carries empty pAG416 plasmid), and the “PIKFYVE TDP-43” yeast strain, were assessed for toxicity using a propidium iodide viability assay. Both yeast strains were transferred from solid CSM-ura/2% glucose agar plates into 3 mL of liquid CSM-ura/2% glucose media for 6-8 hours at 30° C. with aeration. Yeast cultures were then diluted to an optical density at 600 nm wavelength (OD600) of 0.005 in 3 mL of CSM-ura/2% raffinose and grown overnight at 30° C. with aeration to an OD600 of 0.3-0.8. Log-phase overnight cultures were diluted to OD600 of 0.005 in CSM-ura containing either 2% raffinose or galactose and 150 μL dispensed into each well of a flat bottom 96-well plates. Compounds formulated in 100% dimethyl sulfoxide (DMSO) were serially diluted in DMSO and 1.5 μL diluted compound transferred to the 96-well plates using a multichannel pipet. Wells containing DMSO alone were also evaluated as controls for compound effects. Tested concentrations ranged from 15 μM to 0.11 μM. Cultures were immediately mixed to ensure compound distribution and covered plates incubated at 30° C. for 24 hours in a stationary, humified incubator.
Upon the completion of incubation, cultures were assayed for viability using propidium iodide (PI) to stain for dead/dying cells. A working solution of PI was made where, for each plate, 1 μL of 10 mM PI was added to 10 mL of CSM-ura (raffinose or galactose). The final PI solution (50 μL/well) was dispensed into each well of a new round bottom 96-well plate. The overnight 96-well assay plate was then mixed with a multichannel pipet and 50 μL transferred to the PI-containing plate. This plate was then incubated for 30 minutes at 30° C. in the dark. A benchtop flow cytometer (Miltenyi MACSquant) was then used to assess red fluorescence (B2 channel), forward scatter, and side scatter (with following settings: gentle mix, high flow rate, fast measurement, 10,000 events). Intensity histograms were then gated for “PI-positive” or “PI-negative” using the raffinose and galactose cultures treated with DMSO as controls. The DMSO controls for raffinose or galactose-containing cultures were used to determine the window of increased cell death and this difference set to 100. All compounds were similarly gated and then compared to this maximal window to establish the percent reduction in PI-positive cells.

The next assay concerns the target T1, PIKfyve (Homo sapiens, UniProt Q9Y2I7).
T1 construct: PIKFYVE-NanoLuc® Fusion Vector (Promega) containing a full-length PIKfyve; host or cells: HEK293
Description: NanoBRET TE Intracellular Kinase Assay, K-8 (Promega) cell-based assay. Conditions: HEK293 cells transfected with PIKFYVE-NanoLuc, compounds 2 hours; read-out: hPIKfyve BRET IC50. The procedure:
NanoBRET™ TE Intracellular Kinase Assay, K-8 (Promega) Cell-Based Assay. Intracellular inhibition of PIKfyve was assayed using Promega's NanoBRET™ TE Intracellular Kinase Assay, K-8 according to manufacturer's instructions. A dilution series of test compounds was added for 2 hours to HEK293 cells transfected for a minimum of 20 hours with PIKFYVE-NanoLuc® Fusion Vector (Promega) containing a full-length PIKfyve according to manufacturer's specifications in a 96-well plate. Kinase activity was detected by addition of a NanoBRET™ tracer reagent, which was a proprietary PIKfyve inhibitor appended to a fluorescent probe (BRET, bioluminescence resonance energy transfer). Test compounds were tested at concentrations of 10, 3, 1, 0.3, 0.1, 0.03, 0.01, 0.003 μM. BRET signals were measured by a GloMax® Discover Multimode Microplate Reader (Promega) using 0.3 sec/well integration time, 450BP donor filter and 600LP acceptor filters. Active test compounds that bound PIKfyve and displaced the tracer reduced BRET signal. IC50 values were then calculated by fitting the data to the normalized BRET ratio.

In assay [2] the target is T2, full-length human PIKFYVE (Homo sapiens, UniProt Q9Y2I7, L932S/Q1183K/Q995L/S1033A/S696N/T998S).
T2 construct: A full-length human PIKFYVE [1-2098(end) amino acids and S696N, L932S, Q995L, T998S, S1033A and Q1183K; purchased Carna Biosciences; host or cells: baculovirus expression system
T2 sequence (Q9Y2I7 whole entry S696N/L932S/Q995L/T998S/S1033A/Q1183K): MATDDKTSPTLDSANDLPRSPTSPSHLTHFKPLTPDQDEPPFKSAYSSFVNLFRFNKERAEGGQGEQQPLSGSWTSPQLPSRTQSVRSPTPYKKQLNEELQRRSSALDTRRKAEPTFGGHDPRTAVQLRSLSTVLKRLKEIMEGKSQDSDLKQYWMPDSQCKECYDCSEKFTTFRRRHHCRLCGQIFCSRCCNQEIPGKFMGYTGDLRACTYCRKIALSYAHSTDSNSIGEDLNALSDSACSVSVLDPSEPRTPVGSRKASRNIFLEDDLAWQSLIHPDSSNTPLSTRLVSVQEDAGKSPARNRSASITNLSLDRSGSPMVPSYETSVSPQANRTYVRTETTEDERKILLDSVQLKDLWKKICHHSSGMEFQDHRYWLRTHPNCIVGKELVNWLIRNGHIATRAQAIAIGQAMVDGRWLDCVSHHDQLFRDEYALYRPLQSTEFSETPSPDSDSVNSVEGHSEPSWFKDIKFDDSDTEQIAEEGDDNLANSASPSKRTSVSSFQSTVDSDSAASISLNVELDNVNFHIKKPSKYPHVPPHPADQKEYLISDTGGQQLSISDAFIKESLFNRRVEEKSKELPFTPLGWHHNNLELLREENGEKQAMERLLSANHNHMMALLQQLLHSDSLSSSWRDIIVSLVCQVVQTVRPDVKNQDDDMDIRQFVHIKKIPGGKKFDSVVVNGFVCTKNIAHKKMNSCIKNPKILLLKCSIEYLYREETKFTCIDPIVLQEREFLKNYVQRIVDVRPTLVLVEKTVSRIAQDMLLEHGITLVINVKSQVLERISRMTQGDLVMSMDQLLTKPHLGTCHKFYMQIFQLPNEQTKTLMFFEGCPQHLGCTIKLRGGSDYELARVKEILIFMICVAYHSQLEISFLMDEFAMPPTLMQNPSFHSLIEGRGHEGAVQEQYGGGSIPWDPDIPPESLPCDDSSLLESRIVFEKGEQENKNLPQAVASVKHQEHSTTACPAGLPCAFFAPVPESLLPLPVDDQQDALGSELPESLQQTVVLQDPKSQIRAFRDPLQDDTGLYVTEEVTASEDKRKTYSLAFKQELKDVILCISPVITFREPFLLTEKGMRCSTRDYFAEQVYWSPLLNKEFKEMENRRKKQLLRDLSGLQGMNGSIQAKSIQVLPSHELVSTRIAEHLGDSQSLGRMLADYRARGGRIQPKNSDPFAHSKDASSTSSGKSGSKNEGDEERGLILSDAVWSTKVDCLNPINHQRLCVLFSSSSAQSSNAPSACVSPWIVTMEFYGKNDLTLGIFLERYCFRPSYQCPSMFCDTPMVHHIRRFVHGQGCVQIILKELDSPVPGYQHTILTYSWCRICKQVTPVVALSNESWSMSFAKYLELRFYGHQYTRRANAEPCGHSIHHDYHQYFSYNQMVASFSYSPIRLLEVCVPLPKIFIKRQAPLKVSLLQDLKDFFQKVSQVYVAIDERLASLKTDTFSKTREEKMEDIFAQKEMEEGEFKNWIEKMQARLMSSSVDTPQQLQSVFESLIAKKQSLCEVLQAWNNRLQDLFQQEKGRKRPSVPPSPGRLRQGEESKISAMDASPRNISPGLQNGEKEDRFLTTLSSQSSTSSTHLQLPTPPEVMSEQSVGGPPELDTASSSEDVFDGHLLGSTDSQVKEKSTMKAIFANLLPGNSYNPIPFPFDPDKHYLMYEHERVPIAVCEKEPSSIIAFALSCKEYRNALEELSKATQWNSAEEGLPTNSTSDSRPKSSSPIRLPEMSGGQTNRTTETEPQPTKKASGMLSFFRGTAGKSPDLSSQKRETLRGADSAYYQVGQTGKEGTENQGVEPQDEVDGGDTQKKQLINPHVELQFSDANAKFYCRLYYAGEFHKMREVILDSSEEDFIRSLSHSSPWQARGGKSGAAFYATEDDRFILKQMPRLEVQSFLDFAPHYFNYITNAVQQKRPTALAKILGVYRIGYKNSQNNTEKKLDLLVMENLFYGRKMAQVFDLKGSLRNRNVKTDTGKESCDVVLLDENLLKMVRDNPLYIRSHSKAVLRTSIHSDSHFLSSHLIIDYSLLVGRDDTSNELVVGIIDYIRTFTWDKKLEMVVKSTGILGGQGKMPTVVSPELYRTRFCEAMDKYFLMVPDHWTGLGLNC
Description: PIKfyve biochemical assay (ADP-Glo Kinase assay, Carna Biosciences). As to conditions: GST-PIKFYVE, 10 μM to 3 nM in duplicate, read-out: hPIKfyve IC50.
Excerpt: (§1) PIKfyve Biochemical Assay. The biochemical PIKFyve inhibition assays were run by Carna Biosciences according to proprietary methodology based on the Promega ADP-Glo™ Kinase assay. A full-length human PIKFYVE [1-2098(end) amino acids and S696N, L932S, Q995L, T998S, S1033A and Q1183K of the protein having the sequence set forth in NCBI Reference Sequence No. NP_055855.2] was expressed as N-terminal GST-fusion protein (265 kDa) using baculovirus expression system. GST-PIKFYVE was purified by using glutathione sepharose chromatography and used in an ADP-Glo™ Kinase assay (Promega). Reactions were set up by adding the test compound solution, substrate solution, ATP solution and kinase solution, each at 4× final concentrations. Reactions were prepared with assay buffer (50 mM MOPS, 1 mM DTT, pH7.2), mixed, and incubated in black 384 well polystyrene plates for 1 hour at room temperature. ADP-Glo™ reagent was then added for 40 minutes, followed by kinase detection reagent for an additional 40 minutes. The kinase activity was evaluated by detecting relative light units on a luminescence plate reader. Samples were run in duplicate from 10 μM to 3 nM. […] IC50 values were calculated from concentration vs % inhibition curves by fitting to a four-parameter logistic curve.
as §1, with “The” for “PIKfyve Biochemical Assay. The”, “accession number” for “the protein having the sequence set forth in NCBI Reference Sequence No.”, “uM” for “μM”
For orientation: ADP-Glo first removes unused ATP, then detects ADP through luciferase.

T1 sequence (Q9Y2I7 whole entry, the tested form may be a part): as the sequence (Q9Y2I7 whole entry S696N/L932S/Q995L/T998S/S1033A/Q1183K) above, with N696S, S932L, L995Q, S998T, A1033S, K1183Q counted along it

Take `Cc1cccc(/C=N/Nc2cc(N3CCOCC3)nc(OCCc3ccc(CN)cc3)n2)c1`: the IC50 (commonly the concentration at which inhibition is half-maximal) in assay [1] was 1120 nM.
Same read-out and setting: for `c1ccc(-c2cccc(-c3cc(N4CCOCC4)n4nc(-c5ccncc5)cc4n3)n2)cc1` the value was 230 nM.
In assay [1], `Cc1cccc(/C=N/Nc2nc(N3CCOCC3)c3nc(-c4ccncc4)n(C)c3n2)c1` came in with an IC50 of 4720 nM.
In assay [1], `Oc1cc(-c2ccccc2)nn1-c1cc(N2CCOCC2)n2nc(-c3ccncc3)nc2n1` returned an IC50 of 693 nM.
In the case of `Oc1cc(C2CCOCC2)nn1-c1cc(N2CCOCC2)n2nc(-c3ccncc3)cc2n1`, in assay [1], the IC50 came to 9100 nM.
`Cc1cccc(/C=N/Nc2nc(N3CCOCC3)c3ncccc3n2)c1` gave an IC50 in assay [1] of 8210 nM.
Turning to `c1ccc(-c2ccnc(-c3cc(N4CCOCC4)nc(OCc4ccncc4)n3)n2)cc1`, the IC50 in assay [1] was 1450 nM.
The compound `c1ccc(N2CCc3c(OCc4cccnc4)nc(N4CCOCC4)nc32)cc1` displayed an IC50 in assay [1] of 2680 nM.
In assay [1], `Fc1cccc(-c2ccnn2-c2nc(N3CCOCC3)c3ncccc3n2)c1` showed a concentration for half-maximal inhibition (IC50) of 5750 nM.
Take `Oc1cc(-c2ccccc2)nn1-c1nc(N2CCOCC2)c2ncccc2n1` [Compound 71, 1-(4-morpholinopyrido[3,2-d]pyrimidin-2-yl)-3-phenyl-1H-pyrazol-5-ol]: at PIKfyve, the concentration for half-maximal inhibition (IC50) was above 10000 nM.
Turning to `COc1cccc(-c2nccc(-c3nc(N4CCOCC4)c4ncccc4n3)n2)c1` [Compound 100, 4-(2-(2-(3-methoxyphenyl)pyrimidin-4-yl)pyrido[3,2-d]pyrimidin-4-yl)morpholine], the 50% inhibitory concentration (IC50) in assay [2] fell in the range of 100 to 1000 nM.
Take `Oc1cccc(-c2nccc(-c3nc(N4CCOCC4)c4ncccc4n3)n2)c1` [Compound 101, 3-(4-(4-morpholinopyrido[3,2-d]pyrimidin-2-yl)pyrimidin-2-yl)phenol]: the IC50 in assay [2] was 100 to 1000 nM.
As for `COc1cnc(-c2cccc(C)c2)nc1-c1nc(N2CCOCC2)c2ncccc2n1` [Compound 102, 4-(2-(5-methoxy-2-m-tolylpyrimidin-4-yl)pyrido[3,2-d]pyrimidin-4-yl)morpholine], in assay [2], the IC50 lay within 100 to 1000 nM.
On to `Cc1cccc(-c2ncc(O)c(-c3nc(N4CCOCC4)c4ncccc4n3)n2)c1` [Compound 103, 4-(4-morpholinopyrido[3,2-d]pyrimidin-2-yl)-2-m-tolylpyrimidin-5-ol], for which, in assay [2], the half-inhibitory concentration (IC50) is 10 to 100 nM.
Still for that read-out and setting: then `c1ccc(-c2nccc(-c3nc(N4CCOCC4)c4ncc(-c5ccncc5)cc4n3)n2)cc1` [Compound 104, 4-(2-(2-phenylpyrimidin-4-yl)-7-(pyridin-4-yl)pyrido[3,2-d]pyrimidin-4-yl)morpholine], with below 10 nM.
For the compound `c1ccc(-c2nccc(-c3nc(N4CCOCC4)c4ncc(-c5cc[nH]n5)cc4n3)n2)cc1` [Compound 105, 4-(2-(2-phenylpyrimidin-4-yl)-7-(1H-pyrazol-3-yl)pyrido[3,2-d]pyrimidin-4-yl)morpholine], in assay [2], the IC50 was 10 to 100 nM.
Take `CC1COCCN1c1nc(-c2ccnc(-c3ccccc3)n2)nc2cccnc12` (stereo not drawn) [Compound 106, 3-methyl-4-(2-(2-phenylpyrimidin-4-yl)pyrido[3,2-d]pyrimidin-4-yl)morpholine]: the IC50 in assay [2] was in the range of 100 to 1000 nM.
As for `COc1ccc(-c2ccccc2)nc1-c1nc(N2CCOCC2)c2ncccc2n1` [Compound 107, 4-(2-(3-methoxy-6-phenylpyridin-2-yl)pyrido[3,2-d]pyrimidin-4-yl)morpholine], in assay [2], the IC50 fell in the range of 1000 to 10000 nM.
On to `Oc1ccc(-c2ccccc2)nc1-c1nc(N2CCOCC2)c2ncccc2n1` [Compound 108, 2-(4-morpholinopyrido[3,2-d]pyrimidin-2-yl)-6-phenylpyridin-3-ol], for which, in assay [2], the IC50 was 10 to 100 nM.
`c1ccc2c(c1)cnn2-c1nc(N2CCOCC2)c2ncccc2n1` [Compound 109, 4-(2-indazol-1-ylpyrido[3,2-d]pyrimidin-4-yl)morpholine]: the concentration for half-maximal inhibition (IC50) in assay [2] lay within 100 to 1000 nM.
For `Oc1cccc(/C=N/Nc2nc(N3CCOCC3)c3ncccc3n2)c1` [Compound 114, (E)-3-((2-(4-morpholinopyrido[3,2-d]pyrimidin-2-yl)hydrazono)methyl)phenol], the 50% inhibitory concentration (IC50) in assay [2] was 100 to 1000 nM.
`Cc1cccc(/C=N/Oc2nc(N3CCOCC3)c3ncccc3n2)c1` [Compound 116, (E)-3-methylbenzaldehyde O-(4-morpholinopyrido[3,2-d]pyrimidin-2-yl) oxime]: the half-maximal inhibitory concentration (IC50) in assay [2] lay in the range of 10 to 100 nM.
Consider `Clc1nc(N2CCOCC2)c2ncc(Cc3cccnc3)cc2n1` [Compound 128, 4-(2-chloro-7-(pyridin-3-ylmethyl)pyrido[3,2-d]pyrimidin-4-yl)morpholine], for which, in assay [2], the IC50 was above 10000 nM.
For `Fc1cccc(Nc2nc(N3CCOCC3)c3ncc(Cc4cccnc4)cc3n2)c1` [Compound 129, N-(3-fluorophenyl)-4-morpholino-7-(pyridin-3-ylmethyl)pyrido[3,2-d]pyrimidin-2-amine], the IC50 in assay [2] lay within 100 to 1000 nM.
